Drawing on ChEMBL document CHEMBL3301361, “Experimental in vitro DMPK and physicochemical data on a set of publicly disclosed compounds”, this text covers logD for 45 compounds.

The data set in a line: physchem. Particulars: octan-1-ol/water.

`CC(C)C(NC(=O)Cn1c(-c2ccccc2)ccc(NS(C)(=O)=O)c1=O)C(=O)C(F)(F)F` (stereo not given): the logD (commonly lipophilicity at a set pH, counting ionised and neutral species) (pH 7.4, LogD7.4) came to 1.77.
Same read-out and setting: as for `CC(C)C(NC(=O)Cn1c(-c2ccccc2)ccc(N)c1=O)C(=O)C(F)(F)F` (stereo not given), the figure is 1.74; as for `Nc1nccc(-c2cccs2)n1`, 1.75; as for `OC(c1ccccc1)c1cccnc1` (stereo not given), 1.72.
With `CC(=O)NCc1ccc(CN2CCN(c3ccccc3)CC2)cc1`, the logD (pH 7.4, LogD7.4) turned out to be 1.78.
Still for that read-out and setting: the result for `COc1cc(F)ccc1-c1cc(CNC2CCCC2)ccn1` reads 1.71; that for `CCC(c1nc2ccn(C)c2c(=O)n1Cc1ccccc1)N(CCCN)C(=O)c1ccc(C)cc1` (stereo not given), 1.8; that for `Cc1ccc(NC(=O)c2ccnc(N3CCOCC3)c2)cc1Nc1ccnc(OC2CCN(C)CC2)n1`, 1.8.
Same read-out and setting: as for `COc1ccc2c(C)cc(=O)n(CCN3CCC(NCc4cc5c(cn4)OCCO5)CC3)c2c1`, the figure is 1.72; as for `Cc1[nH]c(C(=O)NC2CCN(c3cc(C(=O)O)cc(Cl)n3)CC2)c(Cl)c1Cl`, 1.74; as for `C[C@H]1O[C@@H](n2cnc3c(N)nc(OCC4CCC(F)(F)CC4)nc32)[C@H](O)[C@@H]1O`, 1.72.
In turn, `COc1ccc(-c2nc3c(NCCCNC(=O)C4CC4)c(Br)cnc3[nH]2)cc1` had a logD (pH 7.4, LogD7.4) of 1.71.
Still for that read-out and setting: the result for `CC(C)Cn1c(=O)n(C)c(=O)c2c(C(=O)N3CC[C@@H](O)C3)c(Cc3cncc4ccccc34)sc21` reads 1.74.
Same read-out and setting: as for `Nc1ccc2c(c1)C(=O)C(=O)c1cc(N)ccc1-2`, the figure is 1.72; as for `Cc1ccc2c(c1)c(-c1ccnc3cc(C(F)(F)F)ccc13)c(C)n2CC(=O)O`, 1.78; as for `CCCSc1nc(N2CCCC(C(=O)O)C2)ccc1C(=O)NC1CCCCC1` (stereo not given), 1.72.
The same measure, in the same setting: as for `O=C(O)c1ccccc1C(=O)N1CCC(N2CCC(Oc3ccc(Cl)c(Cl)c3)CC2)CC1`, the figure is 1.73.
Take `CNc1nc2ccccc2n1Cc1sc2c(c1C(=O)N1C[C@H](O)CO1)c(=O)n(C)c(=O)n2CC(C)C`: for the setting “pH 7.4, LogD7.4”, the logD stood at 1.77. This logD and that of the compound before are within 0.2 log units of each other.
The same measure, in the same setting: as for `COc1ccc(C(C)NC(=O)C2(N)CCN(c3ncnc4[nH]ccc34)CC2)cc1OC` (stereo not given), the figure is 1.8; as for `CN(C)C(=O)c1ccc(CN2CCc3cc4nc(N)sc4cc3CC2)cc1`, 1.72; as for `COc1ccccc1CNC(=O)c1ccc2cnccc2n1`, 1.8.
Still for that read-out and setting: the result for `O=C(Nc1cc(C(F)(F)F)cc(C(F)(F)F)c1)c1cnc(Cl)nc1C(F)(F)F` reads 1.8; that for `NC(=O)c1ccc(Br)cc1`, 1.75.
Same read-out and setting: as for `CC(=O)Nc1ccc(-c2ccccc2)n(CC(=O)NC(C(=O)C(F)(F)F)C(C)C)c1=O` (stereo not given), the figure is 1.78; as for `COc1cc2c(Nc3ccc(F)cc3F)c(C(N)=O)cnc2cc1NCCN(C)C`, 1.71.
As to `COc1cc2c(Nc3ccc(F)cc3F)c(C(N)=O)cnc2cc1N1CCN(C)CC1`, the logD (pH 7.4, LogD7.4) came out at 1.75.
On the same count and under the same terms, the result for `NC(=O)Nc1sc(-c2ccc(F)cc2)cc1C(=O)N[C@H]1CCCNC1` reads 1.76; that for `COc1nc(Cl)cnc1NS(=O)(=O)c1cccc2c(N(C)C)cccc12`, 1.74; that for `Nc1nc(N)c2cc(Br)ccc2n1`, 1.78.
Turning to `Nc1ccccc1[N+](=O)[O-]` [2-NITROANILINE], where the note is “pH 7.4”, the log distribution coefficient (logD) was -0.96.
In turn, `c1ccc(-c2ccc3ccccc3n2)cc1` [2-PHENYLQUINOLINE] returned a logD (pH 7.4, LogD7.4) of 4.
Still for that read-out and setting: as for `Nc1ncnc2ccccc12` [4-AMINOQUINAZOLINE], the figure is 1.26.
Still for that read-out and setting: as for `O=c1cc(-c2ccccc2)oc2ccc(O)cc12` [6-HYDROXYFLAVONE], the figure is 3.6.
Where the note is “pH 7.4”, `O=C1C(=O)c2ccccc2-c2ccccc21` [9,10-PHENANTHRENEQUINONE] yielded a logD of 2.6.
`CC(=O)c1ccc(S(=O)(=O)NC(=O)NC2CCCCC2)cc1` [ACETOHEXAMIDE]: where the note is “pH 7.4, LogD7.4”, the logD is -0.49.
As to `CCN(CC)C(=O)c1ccc(C2=CC3(CCNCC3)Oc3ccccc32)c(O)c1` [ADL-5747 FREE BASE], the logD (pH 7.4) came out at 0.77.
Still for that read-out and setting: the result for `CCN(CC)C(=O)c1ccc(C2=CC3(CCNCC3)Oc3cccc(O)c32)cc1` [ADL-5859] reads 0.54.
With `Cc1c(CN(C)C(=O)/C=C/c2cnc3c(c2)CCC(=O)N3)oc2ccccc12` [AFN-1252], where the note is “pH 7.4, LogD7.4”, the logD came out at 2.36.
On the same count and under the same terms, the result for `Cn1ncc(Cl)c1-c1cc(C(=O)N[C@H](CN)Cc2cccc(F)c2)sc1Cl` [AFURESERTIB] reads 2.99.
`Oc1ncnc2[nH]ncc12` [ALLOPURINOL] yielded a logD (pH 7.4) of -0.42.
`CN(C)c1nc(N(C)C)nc(N(C)C)n1` [ALTRETAMINE]: the logD (pH 7.4, LogD7.4) turned out to be 2.44.
For the compound `CCC1(c2ccc(N)cc2)CCC(=O)NC1=O` (stereo not given) [AMINOGLUTETHIMIDE], under “pH 7.4”, the logD was determined as 0.6.
In the case of `Clc1ccc([C@]23CNC[C@H]2C3)cc1Cl` [AMITIFADINE], the logD (pH 7.4) came out at 1.96.
Compound `CC(C)c1ccc2oc3nc(N)c(C(=O)O)cc3c(=O)c2c1` [AMLEXANOX] showed a logD (pH 7.4, LogD7.4) of 1.1.
The same measure, in the same setting: the result for `CCO/N=C(\c1ccc(Br)cc1)C1CCN(C2(C)CCN(C(=O)c3c(C)cc[n+]([O-])c3C)CC2)CC1` [ANCRIVIROC] reads 2.14.
